Positions of bridges follow the written chain, without caps; N, C: chain ends. Non-standard residues stand in square brackets, D forms with d. Residues, ends and D or L forms follow the SMILES beside them. *: point of attachment. NMeY = CN[C@@H](Cc1ccc(O)cc1)C(=O)O; Propionyl = CCC(=O)* A value given as a limit tells only on which side of the number the result lay.

By IC50 is commonly meant the point on the concentration scale where inhibition reaches its midpoint. Broadly, the Ki is the dissociation constant of the complex between target and ligand, obtained from inhibition or displacement.

One assay deals with PC-9. The assay can be described thus: Cytotoxicity against human PC-9 cells assessed as reduction in cell viability incubated for 72 hrs by CCK8 assay. The class given is cell-based. The conditions noted are these: PC-9, 72 h.
A further assay relates to HeLa. Description: Cytotoxicity against human HeLa cells assessed as reduction in cell viability incubated for 72 hrs by CCK8 assay. The class given is cell-based. For orientation: Tetrazolium dyes change colour on reduction, which living cells bring about.
A short description of assay [1]: Inhibition of porcine pancrease lipase type 2 assessed as decrease in 4-MU formation using 4-MUO as substrate preincubated for 3 mins followed by substrate addition and measured for 40 mins by fluorescence assay. Set-up: species or system Sus scrofa domesticus, Pancreas.
In the next assay the test system is MCF7. The assay can be described thus: Cytotoxicity against human MCF7 cells assessed as reduction in cell viability incubated for 72 hrs by CCK8 assay. The class given is cell-based. The conditions noted are these: MCF7, 72 h.
For a further assay, the system named is HepG2. Description: Cytotoxicity against human HepG2 cells assessed as reduction in cell viability incubated for 72 hrs by CCK8 assay. The following applies: HepG2, 72 h. The format is cell-based.
Assay [2] is described as follows: Non-competitive inhibition of porcine pancrease lipase type 2 assessed as decrease in 4-MU formation using 4-MUO as substrate preincubated for 3 mins followed by substrate addition and measured for 40 mins by Lineweaver-Burk plot analysis. Also on record: species or system Sus scrofa domesticus, Pancreas.

Turning to `CCC(=O)N[C@@H]1C(=O)N[C@@H](C(C)C)C(=O)N2CCC[C@H]2C(=O)N[C@@H](C(C)C)C(=O)N(C)[C@@H](Cc2ccc(O)cc2)C(=O)N[C@@H](Cc2ccc(O)cc2)C(=O)O[C@@H]1C` (Propionyl-TVPV[NMeY]Y; ester 1-C), the half-maximal inhibitory concentration (IC50) is above 20 µM in the assay with PC-9; above 20 µM in the assay on HeLa; 1.8 µM in assay [1]; above 20 µM with MCF7; above 20 µM in the assay with HepG2.

Consider `CC(=O)N[C@@H]1C(=O)N[C@@H](C(C)C)C(=O)N2CCC[C@H]2C(=O)N[C@H](C(C)C)C(=O)N[C@@H](Cc2ccc(O)cc2)C(=O)N[C@@H](Cc2ccc(O)cc2)C(=O)O[C@@H]1C`, for which the IC50 in the assay on PC-9 was above 20 µM; with HeLa, above 20 µM; in assay [1], 0.5 µM; in the assay on MCF7, above 20 µM; with HepG2 it was above 20 µM. Also, the Ki in assay [2] stood at 2 µM.

Regarding `CC(=O)N[C@@H]1C(=O)N[C@@H](C(C)C)C(=O)N2CCC[C@H]2C(=O)N[C@@H](C(C)C)C(=O)N(C)[C@@H](Cc2ccc(O)cc2)C(=O)N[C@@H](Cc2ccc(O)cc2)C(=O)O[C@@H]1C` (Ac-TVPV[NMeY]Y; ester 1-C), the IC50 in the assay on PC-9 was above 20 µM; in the assay on HeLa, above 20 µM; in assay [1], 7.6 µM; in the assay on MCF7, above 20 µM; in the assay on HepG2, above 20 µM.

The values are drawn from ChEMBL document CHEMBL4673229, “Pancreatic Lipase Inhibitory Cyclohexapeptides from the Marine Sponge-Derived Fungus Aspergillus sp. 151304” (J Nat Prod, 2020).
